From ChEMBL document CHEMBL4765228, “Indole-like Trk receptor antagonists” (Eur J Med Chem, 2016) come the findings set out here.

The target in data set [1] is High affinity nerve growth factor receptor (Rattus norvegicus) (UniProt P35739). In words: Inhibition of TrkA phosphorylation in rat PC12 cells at 1 uM after 5 mins in presence of NGF by Western blot analysis. The class given is cell-based. Particulars: PC-12. On the technique in general: In western blotting, separated proteins are transferred to a membrane and probed.

Data set [2] deals with BDNF/NT-3 growth factors receptor (Mus musculus) (UniProt P15209). In words: Inhibition of TrkB phosphorylation in mouse MG87 cells transfected with pFA2-Elk plasmid and pFR-luciferase plasmid at 1 uM after 5 mins in presence of BDNF by Western blot analysis. The class given is cell-based.
The target of data set [3] is High affinity nerve growth factor receptor (Rattus norvegicus) (UniProt P35739). As to the kind of experiment: Inhibition of TrkA in rat PC-12 cells assessed as reduction in Akt phosphorylation at 0.01 to 1 uM after 5 mins in presence of NGF by Western blot analysis. The class given is cell-based. Particulars: dose 0.01-1 µM.
For data set [4], the target named is BDNF/NT-3 growth factors receptor (Mus musculus) (UniProt P15209). In words: Inhibition of TrkB in mouse MG87 cells transfected with pFA2-Elk plasmid and pFR-luciferase plasmid assessed as reduction in Akt phosphorylation at 0.01 to 1 uM after 5 mins in presence of BDNF by Western blot analysis. Particulars: dose 0.01-1 µM. The class given is cell-based.
The target in data set [5] is High affinity nerve growth factor receptor (Rattus norvegicus) (UniProt P35739). In words: Inhibition of TrkA in rat PC12 cells assessed as reduction in ERK1/ERK2 phosphorylation at 0.01 to 1 uM after 5 mins in presence of NGF by Western blot analysis. As to conditions: PC-12, dose 0.01-1 µM. In kind it is cell-based.
For data set [6], the target named is BDNF/NT-3 growth factors receptor (Mus musculus) (UniProt P15209). As to the kind of experiment: Inhibition of TrkB in mouse MG87 cells transfected with pFA2-Elk plasmid and pFR-luciferase plasmid assessed as reduction in ERK1/ERK2 phosphorylation at 0.01 to 1 uM after 5 mins in presence of BDNF by Western blot analysis. In kind it is cell-based. As to conditions: dose 0.01-1 µM.

Data set [7] deals with MG87. In words: Cytotoxicity against mouse MG87 cells transfected with pFA2-Elk plasmid and pFR-luciferase plasmid assessed as cellular ATP content at 0.01 to 1 uM after 24 hrs by CellTiter-Glo luminescent analysis. The class given is functional, cell-based. Particulars: dose 0.01-1 µM.
Data set [8] concerns the target Calcium/calmodulin-dependent protein kinase type 1D (Homo sapiens) (UniProt Q8IU85). As to the kind of experiment: Inhibition of human CAMK1D assessed as residual activity at 1 uM relative to control.
Data set [9] has as its target Serine/threonine-protein kinase Chk2 (Homo sapiens) (UniProt O96017). In words: Inhibition of human CHK2 assessed as residual activity at 1 uM relative to control.
Data set [10] deals with Dual specificity tyrosine-phosphorylation-regulated kinase 1A (Homo sapiens) (UniProt Q13627). As to the kind of experiment: Inhibition of human DYRK1A assessed as residual activity at 0.1 uM relative to control.
The target in data set [11] is Tyrosine-protein kinase Lck (Homo sapiens) (UniProt P06239). In words: Inhibition of human LCK assessed as residual activity at 1 uM relative to control.
In data set [12] the target is Serine/threonine-protein kinase Nek6 (Homo sapiens) (UniProt Q9HC98). In words: Inhibition of human NEK6 assessed as residual activity at 1 uM relative to control.
Data set [13] addresses Serine/threonine-protein kinase pim-1 (Homo sapiens) (UniProt P11309). In words: Inhibition of human PIM1 assessed as residual activity at 0.1 uM relative to control.
Data set [14] has as its target Serine/threonine-protein kinase N2 (Homo sapiens) (UniProt Q16513). In words: Inhibition of human PRK2 assessed as residual activity at 1 uM relative to control.
The target of data set [15] is T1, Serine/threonine-protein kinase TBK1 (Homo sapiens) (UniProt Q9UHD2).
T1 sequence (whole entry): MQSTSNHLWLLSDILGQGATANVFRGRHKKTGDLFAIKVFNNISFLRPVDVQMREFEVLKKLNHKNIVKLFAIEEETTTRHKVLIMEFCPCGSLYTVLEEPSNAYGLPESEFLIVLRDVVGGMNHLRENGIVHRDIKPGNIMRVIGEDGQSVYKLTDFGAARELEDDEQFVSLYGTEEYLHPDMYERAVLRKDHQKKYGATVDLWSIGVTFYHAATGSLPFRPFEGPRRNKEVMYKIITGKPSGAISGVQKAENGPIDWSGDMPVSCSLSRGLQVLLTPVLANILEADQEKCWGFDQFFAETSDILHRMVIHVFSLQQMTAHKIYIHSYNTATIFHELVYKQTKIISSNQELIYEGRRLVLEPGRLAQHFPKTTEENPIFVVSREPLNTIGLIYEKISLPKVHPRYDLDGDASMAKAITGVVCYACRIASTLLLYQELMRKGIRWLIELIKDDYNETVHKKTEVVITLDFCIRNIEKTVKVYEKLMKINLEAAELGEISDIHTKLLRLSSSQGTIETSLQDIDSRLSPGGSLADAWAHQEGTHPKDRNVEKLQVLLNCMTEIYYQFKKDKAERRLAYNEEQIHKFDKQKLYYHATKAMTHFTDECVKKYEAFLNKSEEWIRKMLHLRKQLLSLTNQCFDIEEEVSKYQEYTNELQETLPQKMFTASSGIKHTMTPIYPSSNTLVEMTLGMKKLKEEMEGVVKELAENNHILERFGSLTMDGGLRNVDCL
As to the kind of experiment: Inhibition of human TBK1 assessed as residual activity at 0.1 uM relative to control.

The target in data set [16] is T1, Serine/threonine-protein kinase TBK1 (Homo sapiens). As to the kind of experiment: Inhibition of human TBK1 assessed as residual activity at 1 uM relative to control.
Data set [17] concerns the target T2, High affinity nerve growth factor receptor (Homo sapiens, UniProt P04629). As to the kind of experiment: Inhibition of GAL4 fused TrkA (unknown origin) expressed in PC12 cells transfected with pFA2-Elk plasmid and pFR-luciferase plasmid measured for 18 hrs by luciferase reporter gene assay. The class given is cell-based, Rattus norvegicus, PC-12. Background: In a reporter assay the amount or activity of a reporter protein is the signal.

Data set [18] has as its target T2, High affinity nerve growth factor receptor. As to the kind of experiment: Inhibition of TrkA (unknown origin).
The target in data set [19] is T3, BDNF/NT-3 growth factors receptor (Homo sapiens, UniProt Q16620). In words: Inhibition of TrkB (unknown origin).
Data set [20] has as its target NT-3 growth factor receptor (Homo sapiens, UniProt Q16288). In words: Inhibition of TrkC (unknown origin).
For data set [21], the target named is Tyrosine-protein kinase SYK (Homo sapiens) (UniProt P43405). As to the kind of experiment: Inhibition of human SYK (1 to 635 residues) assessed as residual activity at 0.1 uM relative to control.
Data set [22] has the same target. In words: Inhibition of human SYK (1 to 635 residues) assessed as residual activity at 1 uM relative to control.
The target of data set [23] is T3, BDNF/NT-3 growth factors receptor. In words: Inhibition of GAL4 fused TrkB (unknown origin) expressed in MG87 cells transfected with pFA2-Elk plasmid and pFR-luciferase plasmid measured for 18 hrs by luciferase reporter gene assay. In kind it is cell-based.
Data set [24] in a line: Aqueous solubility of the compound […] incubated for 60 min by RP-HPLC-DAD analysis. The class given is physicochemical.
Data set [25] deals with Cortical neurone. As to the kind of experiment: Cytotoxicity against Wistar rat cortical neuron assessed as neuron survival at 0.01 to 1 uM incubated for 24 hrs. In kind it is cell-based. Particulars: dose 0.01-1 µM.

Values after ≈ are worked out from the molar mass of the structure shown. Active and inactive are the calls of the source. No cut-off for these calls is given here.

Serine/threonine-protein kinase N2 (Homo sapiens), sequence (Q16513 whole entry, looked up): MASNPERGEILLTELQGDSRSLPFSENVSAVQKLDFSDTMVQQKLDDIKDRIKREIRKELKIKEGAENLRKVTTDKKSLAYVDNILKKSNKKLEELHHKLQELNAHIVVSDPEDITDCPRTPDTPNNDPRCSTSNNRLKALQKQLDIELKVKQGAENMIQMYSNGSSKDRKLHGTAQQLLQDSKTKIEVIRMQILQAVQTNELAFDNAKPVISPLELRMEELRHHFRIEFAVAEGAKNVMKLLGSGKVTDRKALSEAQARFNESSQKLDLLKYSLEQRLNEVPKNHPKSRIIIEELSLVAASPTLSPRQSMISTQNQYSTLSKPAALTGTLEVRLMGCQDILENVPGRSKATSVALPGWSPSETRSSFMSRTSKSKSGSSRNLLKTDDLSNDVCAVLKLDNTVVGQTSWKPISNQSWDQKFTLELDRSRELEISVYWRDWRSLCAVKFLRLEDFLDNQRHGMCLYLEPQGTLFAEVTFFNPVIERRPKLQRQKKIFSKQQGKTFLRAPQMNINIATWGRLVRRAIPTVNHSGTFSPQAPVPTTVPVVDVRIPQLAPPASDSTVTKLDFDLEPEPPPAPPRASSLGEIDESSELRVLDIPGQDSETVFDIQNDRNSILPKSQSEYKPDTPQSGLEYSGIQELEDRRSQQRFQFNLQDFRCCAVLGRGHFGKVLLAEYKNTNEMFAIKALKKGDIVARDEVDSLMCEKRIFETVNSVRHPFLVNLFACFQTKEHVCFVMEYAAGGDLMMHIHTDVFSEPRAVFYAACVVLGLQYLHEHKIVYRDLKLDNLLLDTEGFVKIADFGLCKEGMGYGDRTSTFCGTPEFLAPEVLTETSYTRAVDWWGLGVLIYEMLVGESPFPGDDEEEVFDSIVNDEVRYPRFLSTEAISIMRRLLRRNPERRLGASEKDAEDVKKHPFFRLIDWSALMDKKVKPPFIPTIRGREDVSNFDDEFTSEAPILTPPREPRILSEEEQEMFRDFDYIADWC
Tyrosine-protein kinase Lck (Homo sapiens), sequence (P06239 2-509 limits assumed): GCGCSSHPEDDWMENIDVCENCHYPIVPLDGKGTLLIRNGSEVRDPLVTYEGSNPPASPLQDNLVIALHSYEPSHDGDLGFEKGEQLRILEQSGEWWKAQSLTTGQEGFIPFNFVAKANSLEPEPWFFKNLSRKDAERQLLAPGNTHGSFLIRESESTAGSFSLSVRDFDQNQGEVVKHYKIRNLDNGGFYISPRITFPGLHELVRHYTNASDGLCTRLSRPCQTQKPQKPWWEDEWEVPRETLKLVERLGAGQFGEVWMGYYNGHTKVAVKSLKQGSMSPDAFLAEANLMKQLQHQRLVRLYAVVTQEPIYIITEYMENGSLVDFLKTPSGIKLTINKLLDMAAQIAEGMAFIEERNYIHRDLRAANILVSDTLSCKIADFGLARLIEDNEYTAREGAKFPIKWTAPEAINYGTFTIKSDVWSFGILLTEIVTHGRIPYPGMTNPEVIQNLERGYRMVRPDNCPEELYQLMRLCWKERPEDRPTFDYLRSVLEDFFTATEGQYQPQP
Serine/threonine-protein kinase Nek6 (Homo sapiens), sequence (Q9HC98 whole entry): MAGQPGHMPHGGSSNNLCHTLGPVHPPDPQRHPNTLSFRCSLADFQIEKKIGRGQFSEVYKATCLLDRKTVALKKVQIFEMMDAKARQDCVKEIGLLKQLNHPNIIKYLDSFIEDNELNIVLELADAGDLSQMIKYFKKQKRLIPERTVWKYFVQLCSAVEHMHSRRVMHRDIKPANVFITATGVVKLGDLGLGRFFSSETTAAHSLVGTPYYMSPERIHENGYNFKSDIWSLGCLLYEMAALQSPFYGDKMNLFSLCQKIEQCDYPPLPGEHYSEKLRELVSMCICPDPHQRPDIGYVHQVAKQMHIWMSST
T3 sequence (Q16620 whole entry): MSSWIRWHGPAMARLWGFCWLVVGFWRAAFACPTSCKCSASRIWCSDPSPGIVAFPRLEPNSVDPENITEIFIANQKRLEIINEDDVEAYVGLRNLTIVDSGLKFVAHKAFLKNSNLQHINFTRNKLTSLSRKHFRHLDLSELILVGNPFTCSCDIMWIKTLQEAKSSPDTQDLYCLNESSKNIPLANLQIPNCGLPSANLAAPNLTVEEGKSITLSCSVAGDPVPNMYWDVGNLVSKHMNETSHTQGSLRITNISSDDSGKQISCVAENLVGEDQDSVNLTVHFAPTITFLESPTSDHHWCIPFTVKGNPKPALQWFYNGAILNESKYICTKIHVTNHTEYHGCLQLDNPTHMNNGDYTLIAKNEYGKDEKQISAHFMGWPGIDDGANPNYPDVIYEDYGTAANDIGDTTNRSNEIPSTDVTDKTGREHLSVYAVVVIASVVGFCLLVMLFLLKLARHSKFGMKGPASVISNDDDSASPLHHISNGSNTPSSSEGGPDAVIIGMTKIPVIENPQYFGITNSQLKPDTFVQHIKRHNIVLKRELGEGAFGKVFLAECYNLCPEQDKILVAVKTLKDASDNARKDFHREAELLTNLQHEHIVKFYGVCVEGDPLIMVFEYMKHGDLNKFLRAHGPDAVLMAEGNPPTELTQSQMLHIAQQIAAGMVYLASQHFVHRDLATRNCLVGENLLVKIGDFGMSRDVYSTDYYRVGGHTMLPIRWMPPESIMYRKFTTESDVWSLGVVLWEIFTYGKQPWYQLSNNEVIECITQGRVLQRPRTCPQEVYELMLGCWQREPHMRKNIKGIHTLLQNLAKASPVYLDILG
Calcium/calmodulin-dependent protein kinase type 1D (Homo sapiens), sequence (Q8IU85 whole entry, looked up): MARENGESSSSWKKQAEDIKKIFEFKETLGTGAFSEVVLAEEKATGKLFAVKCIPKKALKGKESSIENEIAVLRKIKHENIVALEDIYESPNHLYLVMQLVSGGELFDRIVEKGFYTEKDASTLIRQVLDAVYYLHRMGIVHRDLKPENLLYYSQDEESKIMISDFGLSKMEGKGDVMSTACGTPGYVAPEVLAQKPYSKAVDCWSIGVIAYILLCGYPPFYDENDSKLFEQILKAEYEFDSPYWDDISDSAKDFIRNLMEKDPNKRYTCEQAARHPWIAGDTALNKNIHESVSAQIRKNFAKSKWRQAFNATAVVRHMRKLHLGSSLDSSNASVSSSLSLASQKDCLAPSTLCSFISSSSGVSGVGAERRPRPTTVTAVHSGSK
T2 sequence (P04629 whole entry, the tested form may be a part): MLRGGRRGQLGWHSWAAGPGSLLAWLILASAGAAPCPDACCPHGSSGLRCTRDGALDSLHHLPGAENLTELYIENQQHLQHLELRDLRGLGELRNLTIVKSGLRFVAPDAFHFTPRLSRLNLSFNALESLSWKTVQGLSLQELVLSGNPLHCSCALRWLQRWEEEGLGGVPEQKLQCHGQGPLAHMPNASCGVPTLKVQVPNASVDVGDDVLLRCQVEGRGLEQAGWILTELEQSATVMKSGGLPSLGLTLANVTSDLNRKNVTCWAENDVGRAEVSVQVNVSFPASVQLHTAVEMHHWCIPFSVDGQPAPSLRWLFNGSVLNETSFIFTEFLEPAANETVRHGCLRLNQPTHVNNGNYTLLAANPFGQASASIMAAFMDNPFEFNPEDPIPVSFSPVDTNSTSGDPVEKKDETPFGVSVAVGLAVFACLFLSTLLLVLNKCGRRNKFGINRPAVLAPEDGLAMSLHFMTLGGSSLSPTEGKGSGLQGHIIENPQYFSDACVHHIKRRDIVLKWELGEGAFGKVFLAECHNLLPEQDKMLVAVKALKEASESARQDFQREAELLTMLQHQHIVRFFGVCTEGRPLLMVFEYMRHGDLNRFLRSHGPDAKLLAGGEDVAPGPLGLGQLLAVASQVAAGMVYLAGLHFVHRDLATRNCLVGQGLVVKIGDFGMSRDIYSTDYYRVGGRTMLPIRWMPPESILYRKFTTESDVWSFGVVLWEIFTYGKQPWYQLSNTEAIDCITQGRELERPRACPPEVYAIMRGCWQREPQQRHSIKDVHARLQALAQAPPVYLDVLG
BDNF/NT-3 growth factors receptor (Mus musculus), sequence (P15209 whole entry): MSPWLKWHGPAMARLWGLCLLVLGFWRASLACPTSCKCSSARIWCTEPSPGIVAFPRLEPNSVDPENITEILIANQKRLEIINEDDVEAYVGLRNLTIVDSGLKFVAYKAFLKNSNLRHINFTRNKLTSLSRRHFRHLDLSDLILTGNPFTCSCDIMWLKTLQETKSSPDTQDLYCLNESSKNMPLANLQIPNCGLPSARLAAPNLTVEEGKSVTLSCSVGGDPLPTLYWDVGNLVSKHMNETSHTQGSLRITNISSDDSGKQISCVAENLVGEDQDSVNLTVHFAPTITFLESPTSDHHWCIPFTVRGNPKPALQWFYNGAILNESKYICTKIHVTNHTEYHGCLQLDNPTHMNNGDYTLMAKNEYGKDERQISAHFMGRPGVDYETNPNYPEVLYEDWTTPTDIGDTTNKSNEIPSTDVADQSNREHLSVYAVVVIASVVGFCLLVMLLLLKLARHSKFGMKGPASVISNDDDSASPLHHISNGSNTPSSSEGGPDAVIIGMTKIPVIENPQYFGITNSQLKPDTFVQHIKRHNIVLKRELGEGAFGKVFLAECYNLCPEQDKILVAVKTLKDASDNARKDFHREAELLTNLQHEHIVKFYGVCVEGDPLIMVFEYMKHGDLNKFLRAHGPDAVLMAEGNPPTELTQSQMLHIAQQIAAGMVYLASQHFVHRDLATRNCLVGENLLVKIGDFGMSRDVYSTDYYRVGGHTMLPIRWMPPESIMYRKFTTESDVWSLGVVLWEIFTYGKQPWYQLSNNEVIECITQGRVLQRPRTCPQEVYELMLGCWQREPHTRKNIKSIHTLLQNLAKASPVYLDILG
Serine/threonine-protein kinase pim-1 (Homo sapiens), sequence (P11309 whole entry, looked up): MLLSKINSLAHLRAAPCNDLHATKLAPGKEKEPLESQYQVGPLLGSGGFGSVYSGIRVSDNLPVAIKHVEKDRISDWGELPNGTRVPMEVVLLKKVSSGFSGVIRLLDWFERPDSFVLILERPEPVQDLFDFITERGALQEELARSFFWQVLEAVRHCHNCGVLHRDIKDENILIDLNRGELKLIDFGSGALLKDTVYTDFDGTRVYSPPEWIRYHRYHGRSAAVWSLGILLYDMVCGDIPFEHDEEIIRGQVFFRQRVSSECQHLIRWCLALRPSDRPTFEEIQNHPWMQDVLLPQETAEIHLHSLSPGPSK

Regarding `CNS(=O)(=O)c1ccc2c(c1)/C(=C/c1cn(C)c3ccc(OC)cc13)C(=O)N2`, the inhibition entry in data set [1], in data set [2], in data set [3], in [4], in data set [5] and in [6] was “Active” each time. In addition, the outcome in data set [7] was inactive. For the same compound, the Activity in [8] was 80%; in data set [9] it was 75%; in data set [10], 89%; in data set [11], 41%; in [12], 97%; in data set [13], 94%. In addition, the Activity came out at 86% in data set [14], 97% in [15] and 93% in data set [16].
Usually IC50 stands for the concentration at which inhibition is half-maximal. High values mean lower potency, low ones higher potency. For the compound `Cn1cc(/C=C2\C(=O)Nc3ccc(S(N)(=O)=O)cc32)c2ccccc21`, the IC50 in [17] was 36.7 nM; in [18] it was 4.17 nM; in [19], 7.62 nM; in data set [20] it was 6.86 nM. The Activity was 90% in data set [8]; 5% in data set [9]; 122% in [10]; 50% in data set [11]; 109% in data set [12]; 105% in data set [13]. Besides, the Activity is 78% in [14]; 69% in data set [21]; 47% in data set [22]; 75% in data set [15]; 58% in [16].
Take `COc1ccc2c(c1)c(/C=C1\C(=O)Nc3ccc(S(N)(=O)=O)cc31)cn2C`: the inhibition entry in [1], in [2], in data set [3], in data set [4], in [5] and in data set [6] was “Active” in each case. Also, the outcome in data set [7] was inactive. Besides, the Activity in [8] came to 97%; in [9], 39%; in data set [10], 101%; in data set [11] it was 32%; in data set [12], 98%; in data set [13] it was 96%. Also, the values for the Activity in [14], in data set [15] and in data set [16] were 89%, 79% and 55%, respectively.
For `CN(C)S(=O)(=O)c1ccc2c(c1)/C(=C/c1cn(C)c3ccc(O)cc13)C(=O)N2`, the IC50 in [17] came out at 92.8 nM; in data set [18] it was 9.17 nM; in data set [19], 13.5 nM; in data set [20], 9.72 nM. The Activity in [8] is 103%; in data set [9] it was 92%; in data set [10] it was 101%; in data set [11] it was 33%; in data set [12], 103%; in [13], 102%. The Activity in data set [14] was 89%; in data set [21], 107%; in [22], 91%; in data set [15], 96%; in data set [16], 81%.
Usually solubility stands for how much of the substance goes into solution per volume. Read a low solubility as little dissolved substance. `COc1ccc2c(c1)c(/C=C1\C(=O)Nc3ccc(S(=O)(=O)N(C)C)cc31)cn2C`: the concentration for half-maximal inhibition (IC50) in data set [17] worked out at 46 nM; in data set [23], 142 nM; in data set [18] it was 10.1 nM; in data set [19], 15.2 nM; in data set [20], 11.7 nM. Besides, the inhibition entry in data set [1], in data set [2], in data set [3], in [4], in [5] and in [6] was “Active” in each case. The same compound showed a solubility at 1 h in data set [24] of 7.8 µM (≈ 3.21 µg/mL). For the same compound, the Activity entry was “Non-Toxic” in data set [25]; 94% in [8]; 99% in [9]; 98% in data set [10]; 64% in [11]; 100% in data set [12]. Also, the Activity in data set [13] was found to be 104%; in [14] it was 94%; in data set [21], 102%; in data set [22], 91%; in [15] it was 100%; in data set [16] it was 79%. In data set [7], the outcome was inactive.
Turning to `COc1ccc2[nH]cc(/C=C3\C(=O)Nc4ccc(S(N)(=O)=O)cc43)c2c1`, the IC50 in data set [17] was 103 nM; in data set [18], 8.49 nM; in data set [19], 8.53 nM; in data set [20], 8.82 nM. For the same compound, the Activity in [8] was determined as 94%; in data set [9] it was 12%; in data set [10] it was 105%; in data set [11] it was 61%; in data set [12], 108%; in data set [13] it was 103%. Moreover, the Activity in data set [14] turned out to be 81%; in [21], 86%; in data set [22] it was 35%; in data set [15], 96%; in data set [16], 62%.
